Measurements from PMC11795524, “Melanin-Binding-Based Discovery of Topically Instilled Carbonic Anhydrase Inhibitors for Targeted Delivery and Prolonged Action in the Eye” (Molecular Pharmaceutics, 2025).

Key:
[1] = test system: albino rabbits (New Zealand White); assay: IOP study in albino rabbits after single eye drop; format: in vivo, rabbit; conditions: for AUC0-last ± SD in albino rabbits (IOP decrease vs time): single 25 μL eye drop, CAI 0.5 or 1.0%, dorzolamide 2%, n = 5
Method: (§1) Five 3–5 months old albino (New Zealand White, all females) and five 3–6 months old pigmented rabbits (Chinchilla Bastard, 1 male and 4 females) were purchased from Charles River Laboratories, UK and Germany, respectively. Prior to the experiments, the rabbits were habituated to handling, and the baseline values of IOP were measured. During the experiments, rabbits weighed 2.4–4.0 kg.
First, stock solutions of CAIs (250 mg/mL) in dimethyl sulfoxide (Sigma-Aldrich, Germany) were prepared. These stock solutions were diluted with PBS (pH 7.4) to obtain 1 mg/mL (0.1%) or 10 mg/mL (1%) solutions. Water-solubility of the compounds was enhanced with 2-hydroxypropyl-β-cyclodextrin (Sigma-Aldrich, Germany) (Table 1).
(§2) The CAI solutions were tested in albino rabbits (eye drops of 0.1, and 0.5 or 1.0%) and in pigmented rabbits (0.5 or 1.0%). The novel CAI concentrations in solutions were determined based on the drug solubility with the aim to load the highest possible drug concentration to the single eye drop.
(§3) The IOP levels in the rabbits were measured with a tonometer (Tonometer Pro, Icare Finland Ltd.). After baseline IOP measurements, a single eye drop (25 μL) was applied to the left eye, whereas the right eye was not treated. After eye drop instillation, the eyelids were kept open manually for 1 min. The IOP was measured from both eyes of the rabbits at 0.5, 1, 2, 3, 4, 5, 6, 7, and 8 h after eye drop instillation. In the case of the pigmented rabbits, the measurements were continued until 10 h postinstillation, and further until the IOP had returned to the normal baseline.
(§4) The CAIs were tested in the same rabbits to minimize interindividual data variation. Washout periods of at least 3 days were used between instillation of different compounds. The experiments started always at 8 a.m. to eliminate bias due to diurnal IOP fluctuation. At each time point, the pressure was measured three times with the same eye, and the average values were calculated and used in data analysis.

[2] = test system: pigmented rabbits (Chinchilla Bastard); assay: IOP study in pigmented rabbits after single eye drop; format: in vivo, rabbit; conditions: for ratio (AUCpigm/AUCalbino) of IOP response: pigmented vs albino rabbits
Method: as §1
First, stock solutions of CAIs (250 mg/mL) in dimethyl sulfoxide (Sigma-Aldrich, Germany) were prepared. These stock solutions were diluted with PBS (pH 7.4) to obtain 1 mg/mL (0.1%) or 10 mg/mL (1%) solutions.
as §2
Baseline IOP of pigmented rabbits was raised with two intravitreal triamcinolone acetonide injections (Triesence 40 mg/mL, Novartis Finland Ltd.) with 1 week interval to each eye. This method[25],[26] may induce ocular hypertension even up to 60 days in rabbits.[25]
The rabbits were anesthetized with 0.4 mg/kg, s.c. medetomidine (Domitor vet 1 mg/mL, Orion Pharma, Espoo, Finland) and 20 mg/kg s.c. ketamine (Ketaminol vet 50 mg/mL, Pfizer Oy Animal Health, Espoo, Finland). Mydriasis was induced with topical tropicamide eyedrops (Oftan Tropicamid 5 mg/mL, Santen Pharmaceutical Co., Ltd., Tampere, Finland) and the ocular surface was anesthetized with oxybuprocaine eye drop (Oftan Obucain 4 mg/mL, Santen Pharmaceutical Co., Ltd., Tampere, Finland). Thereafter, intravitreal injection of triamcinolone acetonide (100 μL) was given with a 31G needle and syringe. After injection, the eyes were moisturized with carbomer gel (Viscotears 2 mg/g, Dr. Gerhard Mann chem.-pharm. Fabrik GmbH, Berlin, Germany) and the anesthesia was antagonized with 1 mg/kg atipamezole s.c. (Antisedan vet 5 mg/mL, Orion Pharma, Espoo, Finland).
After the second injection, IOP was allowed to settle for 10 days before the experiments were performed. […] Induction of ocular hypertension is presented in Appendix Figure 3. The IOP-lowering effects of the molecules were investigated sequentially, each test initiating once baseline IOP levels was attained.
as §3, §4

[3] = In vitro melanin binding by microscale thermophoresis / initial fluorescence (Monolith NT.115 pico); conditions: for Melanin binding classification: class by Kd; for Kd: melanin nanoparticles 0.5 mg/mL, IF or MST mode, 68% confidence, read-out: Kd ± confidence (melanin binding)
From the text: Melanin binding of the CAI-II compounds was studied with a Monolith NT.115 pico (NanoTemper Technologies GmbH, Munich, Germany) device using the method of […] et al. […] Otherwise, normalized fluorescence signals and the ratio of relative fluorescence after heating (MST mode) were used. The MST software was used in expert mode to allow heating for 30 s. […] As ligand autofluorescence may interfere with the assay, their autofluorescence values were pretested with the detector used in experiment (nanoblue or pico-red). Fluorescence of the ligand should be below 20% of melanin fluorescence. Sample aggregation and adsorption to the capillaries were used also as exclusion criteria.

[4] = molecular target: recombinant human carbonic anhydrase II; parameters: method as in earlier work; conditions: stopped flow kinetics protocol; read-out: Ki against hCA II; cited from earlier work
[5] = test system: pigmented rabbits; parameters: method as in PMID 1263134, PMID 955835; conditions: topical eye drops; cited from earlier work
[6] = test system: albino rabbits; parameters: method as in PMID 1263134, PMID 955835; conditions: topical eye drops; cited from earlier work
[7] = test system: pigmented rabbits; parameters: method as in PMID 37130851; conditions: intracameral injections; cited from earlier work
[8] = topical, rabbits; cited from earlier work
[9] = test system: albino rabbits; parameters: method as in PMID 31515057, PMID 34274401; conditions: cited from earlier work
[10] = test system: albino rats; parameters: method as in PMID 25481859; conditions: cited from earlier work

| Melanin binding classification [3] | Kd [3] [µM] | SMILES | AUC0-last ± SD in albino rabbits (IOP decrease vs time) [1] [mmHg x h] | ratio (AUCpigm/AUCalbino) of IOP response [2] | Ki [4] [nM] | further results |
| --- | --- | --- | --- | --- | --- | --- |
| intermediate (intermediate (65–650 μM)) | 176 ± 159 | NS(=O)(=O)c1ccc(-n2ncc(N3CCCCCC3)cc2=O)cc1 [A12] | 13.80 ± 10.06 | 9.0 | 0.06 ± 0.001 | – |
| high (high (<65 μM)) | 25 | Brc1c(NC2=NCCN2)ccc2nccnc12 [Brimonidine, reference compound] | – | – | – | duration of IOP decrease [7]: 7 days |

More lines, now with the values behind:

| SMILES | Melanin binding classification [3] | Kd [3] [µM] | AUC0-last ± SD in albino rabbits (IOP decrease vs time) [1] [mmHg x h] | ratio (AUCpigm/AUCalbino) of IOP response [2] | Ki [4] [nM] | further results |
| --- | --- | --- | --- | --- | --- | --- |
| NS(=O)(=O)c1ccc(-n2ncc(N3CCOCC3)cc2=O)cc1 [A22] | low (low binders (>650 μM)) | – | 10.50 ± 8.73 | 8.4 | 0.55 ± 0.01 | AUC0-last ± SD in pigmented rabbits (IOP decrease vs time) ([2]; hypertensive (triamcinolone) rabbits, single 25 μL eye drop, CAI 0.5 or 1.0%, dorzolamide 2%, n = 5): 88.10 ± 63.04 mmHg × h |
| CN1[C@@H]2CC[C@H]1C[C@@H](OC(=O)C(CO)c1ccccc1)C2 (some centres unmarked) [Atropine] | – | 758 ± 848 | – | – | – | duration of mydriatic effect [5]: > 96 h; duration of mydriatic effect [6]: 43.5 h |
| CCN[C@H]1CN(CCCOC)S(=O)(=O)c2sc(S(N)(=O)=O)cc21 [Brinzolamide] | – | – | – | – | – | absolute ocular bioavailability [8]: 0.10% |
| CCN[C@H]1C[C@H](C)S(=O)(=O)c2sc(S(N)(=O)=O)cc21 [Dorzolamide, reference compound] | intermediate (intermediate (65–650 μM)) | – | 15.55 ± 10.64 | – | – | duration of IOP decrease ([1]; albino rabbits, single eye drop (0.5–1% CAI, 2% dorzolamide)): < 8 h; IOP reduction in normotensive pigmented rabbits ([2]; Chinchilla Bastard rabbits with normal (low) ocular pressure, before triamcinolone): no IOP reduction; duration of IOP-responses [9]: ~6 h; duration of IOP-responses [10]: ~4 h |
